Test in all cases: inhibition of tumour cell growth, NCI panel, 48 h
Experiment [1] relates to SNB-19.
Experiment [2] relates to M19-MEL.
Experiment [3] deals with OVCAR-5.
In experiment [4] the test system is SNB-78.
For experiment [5], the system named is IGROV-1.
The subject of experiment [6] is NCI-H522.
For experiment [7], the system named is HCT-116.
Experiment [8] deals with TK-10.
Experiment [9] has as its system UACC-257.
In experiment [10] the test system is LOX IMVI.
For experiment [11], the system named is KM12.
Experiment [12] deals with A498.
Experiment [13] relates to SN12C.
The test system of experiment [14] is OVCAR-3.
The subject of experiment [15] is NCI-H23.
The subject of experiment [16] is CAKI-1.
The subject of experiment [17] is KM-20L2.
The test system of experiment [18] is ACHN.

Data on eleven compounds can be found in ChEMBL document CHEMBL1201862, “PubChem BioAssay data set” (2004).

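Assay format: 96-well plates, 48-hour exposure. GI50 is the concentration that inhibits growth by half.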 Active and inactive are the calls of the source. Cut-off read from the data, not from the text of the source: active = GI50 up to about 1.1 µM and inactive = higher.

Turning to `CC(=O)Nc1ccc(-c2nnc(SCC(=O)Nc3cccc(Cl)c3)o2)cc1`, the GI50 in experiment [1] was 22 µM (inactive); in experiment [2], 17.3 µM (inactive); in experiment [3] it was 20.7 µM (inactive); in experiment [4], > 100 µM (inactive); in experiment [5] it was 8.97 µM (inactive); in [6] it was 5.86 µM (inactive). Also, the GI50 in [7] was 12.9 µM (inactive); in experiment [8], 19.6 µM (inactive); in experiment [9], 17.3 µM (inactive); in experiment [10], 10.3 µM (inactive); in experiment [11], 16 µM (inactive); in experiment [12], 16.3 µM (inactive). Also, the GI50 was 16 µM (inactive) in experiment [13]; 7.11 µM (inactive) in [14]; 9.79 µM (inactive) in experiment [15]; 19.1 µM (inactive) in [16]; 15.3 µM (inactive) in [17]; 15.2 µM (inactive) in experiment [18].
Regarding `O=C(c1cccc2ccccc12)N1CCC(C2CCN(C(=O)c3cccc4ccccc34)CC2)CC1`, the GI50 in experiment [2] was > 100 µM (inactive); in [3], 99.1 µM (inactive); in [4], 70.1 µM (inactive); in experiment [5], > 100 µM (inactive); in experiment [6], > 100 µM (inactive); in experiment [7], > 100 µM (inactive). In addition, the GI50 in [8], in [9], in experiment [10], in experiment [11], in experiment [12] and in experiment [13] was > 100 µM (inactive) throughout. The GI50 in experiment [14], in experiment [15], in [16], in experiment [17] and in experiment [18] was > 100 µM (inactive) in each case.
On to `CC(=O)N1CCN(C=S)CC1`, for which the GI50 in experiment [1], in [2], in experiment [3], in experiment [4], in [5] and in experiment [6] was > 100 µM (inactive) in each case. In addition, the GI50 in experiment [7], in [8], in experiment [9], in experiment [10], in experiment [11] and in experiment [12] was > 100 µM (inactive) in each case. In addition, the GI50 in experiment [13], in experiment [14], in [15], in [16], in experiment [17] and in experiment [18] was > 100 µM (inactive) throughout.
With `CC(=O)NNc1nc(C)c(C(=O)NNC(=O)C(=O)Nc2c(C)cccc2C)s1`, the GI50 was 61 µM (inactive) in experiment [1]; 32.7 µM (inactive) in [2]; 81.3 µM (inactive) in experiment [3]; 36.1 µM (inactive) in experiment [4]; 46.1 µM (inactive) in experiment [5]; 16.1 µM (inactive) in experiment [6]. Also, the GI50 in experiment [7] is 40.9 µM (inactive); in experiment [8] it was 77.1 µM (inactive); in [9] it was 36.1 µM (inactive); in [10], 18.3 µM (inactive); in experiment [11] it was 35.1 µM (inactive); in experiment [12], > 100 µM (inactive). The GI50 in experiment [13] is > 100 µM (inactive); in experiment [14], 26.4 µM (inactive); in experiment [15] it was 24.7 µM (inactive); in [16], 65.6 µM (inactive); in experiment [17] it was 35.2 µM (inactive); in experiment [18] it was 37.6 µM (inactive).
Take `O=C1[C@@H]2C3C=CC([C@H]4C(=O)N(CO)C(=O)[C@@H]34)[C@@H]2C(=O)N1CO`: the GI50 in [1] is > 100 µM (inactive); in [2], > 44.9 µM (inactive); in [3] it was > 100 µM (inactive); in experiment [4], > 100 µM (inactive); in experiment [5], > 100 µM (inactive); in experiment [6] it was 34.8 µM (inactive). The GI50 is 34.9 µM (inactive) in experiment [7]; > 100 µM (inactive) in experiment [8]; > 100 µM (inactive) in [9]; 42.1 µM (inactive) in [10]; > 64.7 µM (inactive) in experiment [11]; > 100 µM (inactive) in [12]. The GI50 in [13] is > 57.5 µM (inactive); in experiment [14], > 100 µM (inactive); in experiment [15], > 92.9 µM (inactive); in experiment [16], > 100 µM (inactive); in [17] it was > 31.6 µM (inactive); in experiment [18] it was > 50.7 µM (inactive).
For the compound `O=C1CC(O)C=C1Nc1ccc(Cl)cc1` (stereo unspecified), the GI50 in experiment [1] was 80.7 µM (inactive); in experiment [2] it was 25.2 µM (inactive); in experiment [3] it was 90.8 µM (inactive); in [4], 39.6 µM (inactive); in experiment [5], 43.1 µM (inactive); in experiment [6], 11.2 µM (inactive). The GI50 was 30.6 µM (inactive) in [7]; > 100 µM (inactive) in experiment [8]; 52.4 µM (inactive) in experiment [9]; 25.4 µM (inactive) in experiment [10]; 13.4 µM (inactive) in experiment [11]; 13.8 µM (inactive) in experiment [12]. For the same compound, the GI50 in experiment [13] is 62.5 µM (inactive); in experiment [14], 71.6 µM (inactive); in experiment [15], 29 µM (inactive); in experiment [16], 10.5 µM (inactive); in experiment [17], 0.708 µM (active); in [18], 6.98 µM (inactive).
As for `Cc1ccc(/C=C/C(=O)c2cccc3ccccc23)cc1`, the GI50 is 16.1 µM (inactive) in experiment [1]; 21.2 µM (inactive) in [2]; 14.4 µM (inactive) in experiment [3]; 14.8 µM (inactive) in experiment [4]; > 10 µM (inactive) in experiment [5]; 17.1 µM (inactive) in experiment [6]. Besides, the GI50 in experiment [7] is 11.5 µM (inactive); in experiment [8], 15.2 µM (inactive); in experiment [9], 18.5 µM (inactive); in experiment [10] it was > 10 µM (inactive); in experiment [11], 13.2 µM (inactive); in experiment [12], 13.9 µM (inactive). Besides, the GI50 was 14.3 µM (inactive) in [13]; 17.5 µM (inactive) in [14]; > 10 µM (inactive) in experiment [15]; 16.4 µM (inactive) in experiment [16]; 15.8 µM (inactive) in [17]; 16.9 µM (inactive) in experiment [18].
`Cc1c2c(cc[n+]1C)O[B-](c1ccccc1)(c1ccccc1)O2`: the GI50 in experiment [2] was 49.1 µM (inactive); in experiment [3], 87.3 µM (inactive); in [4], 88.3 µM (inactive); in [5] it was 90.6 µM (inactive); in [6], 36.8 µM (inactive); in experiment [7], 46.7 µM (inactive). In addition, the GI50 was 55.2 µM (inactive) in [8]; 55.5 µM (inactive) in experiment [9]; 51.2 µM (inactive) in [10]; 59.8 µM (inactive) in experiment [11]; 64 µM (inactive) in [12]; 51.8 µM (inactive) in experiment [13]. In addition, the GI50 in [14] is 43.7 µM (inactive); in experiment [15], > 100 µM (inactive); in experiment [16], 13.5 µM (inactive); in experiment [17] it was 71 µM (inactive); in experiment [18], 35.9 µM (inactive).
Turning to `CN(C(=O)C12C3C4C5C3C1(C(=O)C13C6C7C8C6C1C8C73)C5C42)C(C)(C)C` (stereo unspecified), the GI50 in experiment [1] was > 50 µM (inactive); in [2] it was > 50 µM (inactive); in [3], > 50 µM (inactive); in experiment [4], > 50 µM (inactive); in experiment [5] it was > 50 µM (inactive); in experiment [6], > 32.4 µM (inactive). Further, the GI50 in experiment [7] is 9.55 µM (inactive); in experiment [8], > 50 µM (inactive); in experiment [9] it was > 50 µM (inactive); in experiment [10], > 21 µM (inactive); in [11], > 50 µM (inactive); in experiment [12], > 50 µM (inactive). In addition, the GI50 in experiment [13], in experiment [14], in experiment [15], in experiment [16], in experiment [17] and in [18] was > 50 µM (inactive) in each case.
For the compound `Clc1ccc(C2=Nc3ccccc3SC(c3ccc(Cl)c(Cl)c3)C2)c(Cl)c1` (stereo unspecified), the GI50 is 20.7 µM (inactive) in experiment [1]; 16 µM (inactive) in experiment [2]; 17.1 µM (inactive) in [3]; 18.3 µM (inactive) in [4]; 14.7 µM (inactive) in experiment [5]; 13.5 µM (inactive) in experiment [6]. Further, the GI50 was 11.4 µM (inactive) in experiment [7]; 20.6 µM (inactive) in [8]; 19.5 µM (inactive) in experiment [9]; 8.15 µM (inactive) in experiment [10]; 7.08 µM (inactive) in experiment [11]; 20.6 µM (inactive) in experiment [12]. The GI50 in experiment [13] is 17.2 µM (inactive); in experiment [14], 13.3 µM (inactive); in [15] it was 15.3 µM (inactive); in experiment [16], 13.5 µM (inactive); in [17], 18.3 µM (inactive); in [18] it was 14.2 µM (inactive).
With `CC1(C)C(=NNC(=O)C[N+](C)(C)C)C(C)(C)C1=NNC(=O)C[N+](C)(C)C`, the GI50 in experiment [1] was > 100 µM (inactive); in experiment [2] it was > 100 µM (inactive); in experiment [3], > 100 µM (inactive); in experiment [4], > 100 µM (inactive); in experiment [5], > 100 µM (inactive); in [6], 82.4 µM (inactive). In addition, the GI50 in experiment [7] is > 100 µM (inactive); in experiment [8], > 100 µM (inactive); in [9] it was > 100 µM (inactive); in experiment [10], 72.9 µM (inactive); in [11], > 100 µM (inactive); in experiment [12], > 100 µM (inactive). Also, the GI50 in experiment [13], in experiment [14], in experiment [15], in [16], in experiment [17] and in experiment [18] was > 100 µM (inactive) each time.
